Details: rat, in vivo
Experimental: Non self-emulsifying tocotrienol oily suspension was prepared by mixing tocotrienols rich fraction (TRF) and palm olein at a ratio of 1:1. The total tocotrienol administered per rat was equivalent to 10 mg/kg body weight. The single dose of ketoconazole (suspension in water) was administered at a dose of 32 mg/kg body weight.
The rats were fasted overnight for at least 12 hours before the study. During Phase 1, the rats in Group 1 were given only the tocotrienol oily suspension while Group 2 were given a single dose of ketoconazole half an hour prior to administration of tocotrienol. Phase 2 was carried out after 1 week of wash-out period. Blood samples were taken from the tail vein according to the following predetermined sampling interval. The blood levels of individual tocotrienol isomers at each time point was analysed using HPLC assay.

SMILES: CC(=O)N1CCN(c2ccc(OCC3COC(Cn4ccnc4)(c4ccc(Cl)cc4Cl)O3)cc2)CC1 (stereo not shown) [Ketoconazole, ketoconazole]
- Increase in bioavailability compared with Control, Alpha-tocotrienol: 2.1-fold
- Increase in bioavailability compared with Control, Delta-tocotrienol: 2.6-fold
- Increase in bioavailability compared with Control, Gamma-tocotrienol: 3.0-fold
- Enhancement of bioavailability of tocotrienols compared to without ketoconazole (po): 2-3 folds

— US20240252464A1, “A SELF-EMULSIFYING DRUG DELIVERY FORMULATION WITH IMPROVED ORAL BIOAVAILABILITY OF LIPOPHILIC COMPOUND” (Avantsar Sdn Bhd, priority 2022, published 2024)
